Source: patent publication US11007273B2, “Prochelators as targeted prodrugs for prostate cancer and methods of making and using same” (Duke University, priority 2017, dated 2021)
“Also recorded” adds a separate entry of the source. Read-outs that look alike come from different tables or passages of the source. Non-standard residues stand in square brackets, D forms with d. Residues, ends and D or L forms follow the SMILES beside them. *: point of attachment. X1 = CCN(CC)C(=S)SCc1ccc(N*)cc1

How the values were obtained:
GGT [1] = target: T1, GGT (Homo sapiens, UniProt P19440); assay: GGT enzyme cleavage assay (LC/MS); assay type: biochemical; settings: 100 μM, 100 U/L GGT, 15 min, then 500 μM CuSO4
Experimental: GGT Enzyme cleavage assay: In order to detect DTC liberated from prodrug by reactivity with GGT, 100 μM Glu-DTC was exposed to 100 U/L GGT in the presence of 1 mM Gly-Gly (PBS; pH 7.4; 37° C.). After 15 min, 500 μM CuSO4 was added to the vial, mixed well, then analyzed by LC/MS using an H2O: acetonitrile gradient for 25 min starting with 95% H2O:acetonitrile to 5% H2O:acetonitrile. A peak eluting at 12 min was observed corresponding to Glu-DTC as detected by MS, while a second peak eluting at 22 min corresponded to Cu(DTC)2 as detected by MS.

PWR-1E cells [2] = assay: Glu-DTC cleavage in cell culture, PWR-1E; assay type: cell-based, human; settings: GGT(−), 100 μM, 24 h
Experimental: (§1) Glu-DTC cleavage in cell culture: 22Rv1 and PWR-1E cell lines were plated into a 24 well plate (2×10^5 cells/well) with their respective growth media and allowed to adhere overnight. The following day, the growth media was removed, and each cell line was washed with PBS. 2 mL of 100 μM Glu-DTC in serum free media along with 1 mM Gly-Gly was added to the cells. One batch of 22Rv1 were treated with 2 mM Acivicin, a GGT inhibitor, along with Glu-DTC and Gly-Gly. 100 μL aliquots were taken at various time points over 72 h. Each aliquot was analyzed via HPLC to generate chromatographs of the progress of Glu-DTC digestion. Caffeine was added as reference and the ratio of Glu-DTC peak area with respect to caffeine was plotted as percentage considering initial Glu-DTC level as 100%.

GGT [3] = target: T1, GGT; assay: Copper-calcein competition assay with GGT exposure; assay type: biochemical; settings: 20 U/L GGT, 1 mM Gly-Gly, 12.5 μM, 37° C.
Experimental: Plots at different timepoint of GGT exposure in accordance with one embodiment of the present disclosure. […] Solutions contained 1 μM CuSO4, 1 μM calcein, 20 U/L of GGT enzyme, and 12.5 μM of either Glu-DTC (grey) or DTC (black) in PBS buffer pH 7.4 with 1 mM Gly-Gly; 37° C.
Calcein assay: In a 96-well plate 12.5 μM prodrug or DTC chelator was dissolved in PBS (pH=7.4) from a 20 mM stock solution in DMSO. To each well Calcein (Cu) was added to reach a final concentration of 1 μM. The fluorescence of calcein was measured using a plate reader with λex=485 nm and λem=535 nm. After measuring the initial fluorescence, Gly-Gly and GGT were added in each well to make up to a final concentration of 1 mM and 20 U/L respectively. The plate was scanned at various time points to observe prodrug turnover via the development of a fluorescent signal caused by Cu removal from Calcein. The fluorescence emission was plotted as percentage with fluorescence of 1 μM Calcein in PBS as 100% and 1 μM (Cu)Calcein as 0%. The experiment was repeated in triplicate and standard deviations are represented as error bars.

GGT [4] = target: T1, GGT; assay: Competition experiments vs. γE-pNA for GGT; assay type: biochemical; settings: vs E-pNA; PBS, pH 7.4, 1 mM GlyGly
Experimental: Competition experiments vs. γE-pNA for GGT: To perform the inhibition study, a serial dilution of γE-pNA was performed ranging from 1 mM to 3 μM in PBS with 1 mM Gly-Gly (dilution factor=0.5; pH 7.4; 10% DMSO; 100 μL) using a clear, flat bottom 96 well plate. GGT binding molecules, as indicated, were added to separate sets of triplicate wells to reach a final concentration of 10 and 100 μM. Before the addition of enzyme, the plate was cooled to 4° C. for 15 min. To initiate the assay, 10 μL of 50 U/L GGT was added to each well and an initial absorbance scan was performed. Subsequent scans were performed every 10 min for ˜2 h. In between each scan, the plates were stored at 37° C. in a humidified incubator to reduce solvent evaporation. The experiment was repeated in triplicate.
To probe the reactivity of Glu-DTC in comparison to the enzyme's natural substrate GSH, competition experiments were conducted against the colorimetric substrate L-glutamic acid γ-(p-nitroanilide) [E-pNA]. The colorimetric assay involves monitoring p-nitroaniline release by absorbance at 405 nm upon reaction of the probe substrate E-pNA with GGT in the presence of an inhibiting substrate, either Glu-DTC (FIG. 15A) or GSH (FIG. 15C).

22Rv1 cells [5] = assay: Glu-DTC cleavage in cell culture, 22Rv1; assay type: cell-based, human; settings: 100 μM
Experimental: as §1

PWR-1E cells [6] = assay: cells; assay type: cell-based, human
Experimental: (§2) Antiproliferation assay: To determine the amount of Cu(II) required for cell studies a checkerboard assay was performed by varying the prodrug or drug concentration and Cu(II) concentration. 22RV1, LNCaP, PC3, MCF-7, and PWR-1E (5,000 cells/well) were seeded in 96-well plates with regular media (22Rv1, LNCaP, and PC-3 in RPMI with 10% FBS; MCF-7 in DMEM with 10% FBS; PWR-1E in Keratinocyte-SFM) and let adhere for 24 h. The following day, the media was replaced with serum free media and cells were treated as indicated for an additional 24 h or 72 h. Cell proliferation was measured using a fluorometric resazurin reduction method. 20 μL of 700 μM Resazurin (Sigma R7017) was added in each well and incubated at 37° C. for 2 h. Fluorescence at 580 nm was measured by exciting at 555 nm with a plate reader. Each experiment was performed in triplicate, and the experiments were repeated three times. Viability vs drug concentration plot from a representative experiment are shown with standard deviation from the experiment as error bar. The error bar in IC50 values represents standard deviation from three different experiments.

LNCaP cells = assay: cells; assay type: cell-based, human
Experimental: as §2

22Rv1 cells [7] = assay: cells; assay type: cell-based, human
Experimental: as §2

PC-3 cells = assay: cells; assay type: cell-based, human
Experimental: as §2

MCF-7 cells = assay: cells; assay type: cell-based, human
Experimental: as §2

aminopeptidases = assay: Further treatment with aminopeptidases (DTC release); assay type: biochemical; settings: after PSA treatment
Experimental: (§3) It is hypothesized that the […] enzyme cleaves the peptide bond between Tyr and Ser. The cleaved products are shown in Scheme 2. When treated with 20 μg/mL of PSA, PSA-DTC was completely converted to products within 6 h (FIG. 6A).

PSA enzyme = PSA enzyme (Homo sapiens, UniProt P07288); assay: In vitro cleavage by PSA enzyme (LC trace); assay type: biochemical; settings: 20 μg/mL of PSA
Experimental: as §3

[8] = assay type: in vitro ADME, human
Experimental: Conditioned media from prostate cancer cell line, LNCaP, was used to test the cleavage of prodrug. […] Since DTC is not observed in the UV or mass spectrometer, Cu(II) was added before recording mass spectra to visualize the release of DTC. Cu(DTC)2 complex was observed indicating the release of DTC. PSA-DTC was completely cleaved within 4 h.

T1 sequence (P19440 whole entry, species assumed): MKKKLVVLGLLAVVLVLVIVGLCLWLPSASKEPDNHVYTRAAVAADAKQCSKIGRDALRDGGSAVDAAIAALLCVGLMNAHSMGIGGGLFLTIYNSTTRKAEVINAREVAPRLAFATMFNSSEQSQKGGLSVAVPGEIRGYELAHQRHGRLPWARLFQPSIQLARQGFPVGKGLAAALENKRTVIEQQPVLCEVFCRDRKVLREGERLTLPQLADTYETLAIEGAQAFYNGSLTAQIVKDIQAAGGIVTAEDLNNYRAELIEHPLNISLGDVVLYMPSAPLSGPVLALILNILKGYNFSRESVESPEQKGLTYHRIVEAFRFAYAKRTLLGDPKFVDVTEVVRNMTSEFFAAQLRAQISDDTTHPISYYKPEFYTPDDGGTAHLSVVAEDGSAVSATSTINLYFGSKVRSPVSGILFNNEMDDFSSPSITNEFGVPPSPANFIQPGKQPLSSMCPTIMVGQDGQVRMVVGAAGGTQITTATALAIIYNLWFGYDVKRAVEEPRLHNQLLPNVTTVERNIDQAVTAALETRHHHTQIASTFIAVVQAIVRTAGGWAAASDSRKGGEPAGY
Sequence of PSA enzyme (P07288 25-261): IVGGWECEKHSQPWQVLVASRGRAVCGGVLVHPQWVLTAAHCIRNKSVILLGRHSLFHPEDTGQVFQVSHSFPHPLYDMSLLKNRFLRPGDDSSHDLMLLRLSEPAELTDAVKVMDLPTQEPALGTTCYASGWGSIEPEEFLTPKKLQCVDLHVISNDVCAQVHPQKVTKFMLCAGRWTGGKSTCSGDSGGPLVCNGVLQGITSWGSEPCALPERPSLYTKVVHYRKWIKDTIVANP

For `CCN(CC)C(=S)SCc1ccc(NC(=O)CC[C@H](N)C(=O)O)cc1` [Glu-DTC], the “prodrug cleavage and Cu(DTC)2 formation by LC/MS” value (GGT [1]) was “decrease in Glu-DTC peak and formation of Cu(DTC)2”, the “level of intact Glu-DTC in supernatant” value (PWR-1E cells [2]) was “unchanged” and the “calcein fluorescence after exposure to GGT enzyme” value (GGT [3]) was “recovery of calcein fluorescence over time”. For the same compound, the Ki (GGT [4]) was 23 ± 5 µM, the “level of intact Glu-DTC in supernatant” value (22Rv1 cells [5]; 22Rv1, 24 h, 1 mM GlyGly) was “significant loss of detectable Glu-DTC; also recorded: depletion was observed” and the “stability time with GGT inhibitor Acivicin” value (22Rv1 cells [5]; 22Rv1, co-exposure with Acivicin) was “at least 24 h”. For the same compound, the “level of intact Glu-DTC in supernatant with Acivicin” value (22Rv1 cells [5]; 22Rv1 treated with GGT-inhibitor Acivicin, 24 h) was “unchanged”, the IC50 (PWR-1E cells [6]; Homo sapiens, PWR-1E, 24 h, PWR-1E, 24 h, 1 μM CuSO4, read-out: IC50 with 1 μM CuSO4) was over 15 µM and the IC50 (PWR-1E cells [6]; Homo sapiens, PWR-1E, 72 h, PWR-1E, 72 h, 1 μM CuSO4, read-out: IC50 with 1 μM CuSO4) was 1.5 µM. The IC50 (PWR-1E cells [6]; PWR-1E, 24 h, 1 μM CuSO4, read-out: IC50 with 1 μM CuSO4) was 16.8 ± 4.4 µM, the IC50 (PWR-1E cells [6]; PWR-1E, 72 h, 1 μM CuSO4, read-out: IC50 with 1 μM CuSO4) was 1.55 ± 0.02 µM and the toxicity (PWR-1E cells [6]; initial experiments, PWR-1E, within the tested concentration of 10 μM) was “did not show much toxicity”. The IC50 (LNCaP cells; Homo sapiens, LNCaP, 24 h, LNCaP, 24 h, 1 μM CuSO4, read-out: IC50) was 0.8 µM, the IC50 (LNCaP cells; Homo sapiens, LNCaP, 24 h, LNCaP, 24 h, 1 μM CuSO4, read-out: IC50 with 1 μM CuSO4) was 0.62 ± 0.04 µM and the IC50 (LNCaP cells; Homo sapiens, LNCaP, 24 h, initial experiments, LNCaP, after 24 h, 1 μM supplemental Cu(II), read-out: IC50) was 0.76 µM. For the same compound, the IC50 (LNCaP cells; Homo sapiens, LNCaP, 72 h, LNCaP, 72 h, 1 μM CuSO4, read-out: IC50 with 1 μM CuSO4) was 0.5 ± 0.09 µM, the IC50 (22Rv1 cells [7]; Homo sapiens, 22Rv1, 24 h, 1 μM CuSO4, read-out: IC50) was 0.8 µM and the IC50 (22Rv1 cells [7]; Homo sapiens, 22Rv1, 24 h, 1 μM CuSO4, read-out: IC50 with 1 μM CuSO4) was 0.76 ± 0.09 µM. The IC50 (22Rv1 cells [7]; Homo sapiens, 22Rv1, 72 h, 1 μM CuSO4, read-out: IC50 with 1 μM CuSO4) was 0.29 ± 0.11 µM, the IC50 (22Rv1 cells [7]; Homo sapiens, 22Rv1, 72 h continuous exposure, 1 μM CuSO4, read-out: IC50) was 0.3 µM and the “Cu(II) added to the growth medium required for antiproliferative activity” value (22Rv1 cells [7]; checkerboard pilot studies in 22Rv1 cells) was 300 nM. For the same compound, the IC50 (PC-3 cells; Homo sapiens, PC-3, initial experiments, PC3, 24 h, above maximum tested 10 μM, obtained by extrapolation of the curve (FIG. 10A), read-out: IC50) was about 12 µM, the IC50 (PC-3 cells; Homo sapiens, PC-3, 24 h, 1 μM CuSO4, read-out: IC50 with 1 μM CuSO4) was 5.5 ± 0.1 µM and the IC50 (PC-3 cells; Homo sapiens, PC-3, 72 h, 1 μM CuSO4, read-out: IC50 with 1 μM CuSO4) was 1.32 ± 0.25 µM. For the same compound, the IC50 (MCF-7 cells; Homo sapiens, MCF7, MCF-7, 24 h, 1 μM CuSO4, read-out: IC50 with 1 μM CuSO4) was 1.7 ± 0.1 µM and the IC50 (MCF-7 cells; Homo sapiens, MCF7, MCF-7, 72 h, 1 μM CuSO4, read-out: IC50 with 1 μM CuSO4) was 0.48 ± 0.04 µM.

For `CCN(CC)C(=S)SCc1ccc(NC(=O)[C@@H](CC(C)C)NC(=O)[C@@H](CO)NC(=O)[C@@H](Cc2ccc(O)cc2)NC(=O)[C@@H](Cc2ccc(O)cc2)NC(=O)[C@@H](CO)NC(=O)[C@@H](CO)NC(=O)[C@H](N)CCCNC(=N)N)cc1` [PSA-DTC] (H-[dR][dS][dS][dY][dY][dS][dL]-X1), the “release of DTC on treatment with aminopeptidases” value (aminopeptidases) was “led to the release of DTC”, the “time to complete conversion to products” value (PSA enzyme) was at most 6 h and the “time to complete cleavage” value [8] was at most 4 h. For the same compound, the IC50 (PWR-1E cells [6]) was 0.5 µM, the IC50 (LNCaP cells) was 0.39 µM and the “antiproliferative activity in checker board assay with Cu” value (LNCaP cells; LNCaP, varying Cu and prodrug, within 24 h (dPSA-DTC: even after 72 h)) was “showed antiproliferative activity in the presence of Cu”. The IC50 (22Rv1 cells [7]) was 0.77 µM, the IC50 (PC-3 cells) was 0.49 µM and the IC50 (MCF-7 cells) was 0.33 µM.
